Experimental data from patent US11547704B2, “Chemical compounds” (GlaxoSmithKline Intellectual Property Development Limited, priority 2016, dated 2023).

Tested on: ATF4 translation
Test: ATF4 cell based assay (ATF4 reporter assay, NanoLuc luciferase fused to 5'-UTR of ATF4)
Conditions: SH-SY5Y-ATF4-NanoLuc cells challenged with Thapsigargin for 14-18 hours; average of a set of two or more experimental runs; read-out: average ATF4 pathway inhibitory activity (IC50)
Excerpt: The ATF4 reporter assay measures the effect of Thapsigargin induced cellular stress on ATF4 expression. For this reporter assay, a stable cell line was created by transfecting SH-SY5Y cells with a plasmid containing the NanoLuc® luciferase gene fused to the 5′-UTR of ATF4, under the control of the CMV promoter. The ATF4 5′-UTR contains two open reading frames which mediate the cellular stress-dependent translation of the reporter gene. Clones stably expressing the reporter construct were isolated and selected based on the luminescence response to thapsigargin and inhibition of this signal by test compounds. Briefly, SH-SY5Y-ATF4-NanoLuc cells were challenged with Thapsigargin for 14-18 hours to determine the stress effect with or without test compounds. Cells were propagated in growth media consisting of 90% DMEM F12 (InVitrogen #11320-033), 10% Fetal Bovine Serum (Gibco #10438-026), 5 mM Glutamax (Gibco #35050-061), 5 mM Hopes, (Gibco #15630-080), and 0.5 mg/ml Geneticin (Gibco #10131-027). Cells were prepared for the assay by removing all media from cells, washing the plated cells with phosphate buffered saline, and detached by adding a solution comprised of 10% Tryple express solution (InVitrogen 12604-021) and 90% enzyme-free cell dissociation buffer HANKS base (Gibco 13150-016). The trypsin was deactivated by adding assay media comprised of 90% phenol-red free DMEM F12 (InVitrogen, 11039), 10% Fetal Bovine Serum (Gibco #10438-026), (5 mM Glutamax (Gibco #35050-061), mM Hopes, (Gibco #15630-080), and 0.5 mg/ml Geneticin (Gibco #10131-027). Suspended cells were spun down at 300 g for 5 min, the supernatant was removed and the cell pellet was suspended in warm media (30-37° C.) comprised as above at (1e6 cell/ml). Assay plates were prepared by adding 250 nL of compound stock solution in 100% DMSO to each well, followed by dispensing 20 microliters/well cell suspension to deliver 15-20 k cell/well. Cells were incubated for 1 hour at 37° C. Then, 5 μL of 1.5 μM or 1 μM of Thapsigargin (final concentration: 200-300 nM) was added to each well of cells. Assay plates containing cells were incubated for 14-18 hours at 37° C. The measurement of luciferase produced by the ATF4 constructs was measured as follows. Aliquots of the Nano-Glo reagent (Nano-Glo® Luciferase Assay Substrate, Promega, N113, Nano-Glo® Luciferase Assay Buffer, Promega, N112 (parts of Nano-Glo® Luciferase Assay System, N1150) were brought to room temperature, the substrate and buffer were mixed according to manufacturer's instructions. The cell plates were equilibrated to room temperature. 25microliters/well of the mixed Nano-Glo reagent were dispensed into assay wells and pulse spun to settle contents and the plate was sealed with film. The plates were incubated at room temperature for 1 hour before detecting luminescence on an Envision plate reader.

SMILES	IC50 [nM]
O=C(NCCOc1ccc(Cl)cc1)C1CCN(CCOc2ccc(Cl)cc2)CC1 [Example 39, N,1-bis(2-(4-chlorophenoxy)ethyl)piperidine-4-carboxamide]	> 1000
O=C(COc1ccc(C2CC2)cc1)NC1CCN(CCCOc2ccc(Cl)cc2)CC1 [Example 56, N-(1-(3-(4-chlorophenoxy)propyl)piperidin-4-yl)-2-(4-cyclopropylphenoxy)acetamide]	> 1000
O=C(COc1ccc(Cl)cc1)NC1CCN(CCCOc2ccc(Cl)cc2)C(C(=O)O)C1 (centres unmarked) [Example 59, 4-(2-(4-chlorophenoxy)acetamido)-1-(3-(4-chlorophenoxy)propyl)piperidine-2-carboxylic acid]	172
O=C(COc1ccc(Cl)cc1)NC1CCN(C(=O)CCCc2ccc(Cl)cc2)CC1 [Example 37, 2-(4-chlorophenoxy)-N-(1-(4-(4-chlorophenyl)butanoyl)piperidin-4-yl)acetamide]	98.7
O=C(COc1ccc(Cl)cc1)NC1CCN(CC(O)COc2ccc(Cl)cc2)CC1 (centres unmarked) [Example 11, 2-(4-chlorophenoxy)-N-(1-(3-(4-chlorophenoxy)-2-hydroxypropyl)piperidin-4-yl)acetamide]	32
O=C(COc1ccc(Cl)cc1)NC1CCN(CCCOc2ccc(Cl)cc2)CC1 [Example 2, 2-(4-chlorophenoxy)-N-(1-(3-(4-chlorophenoxy)propyl)piperidin-4-yl)acetamide]	< 4000
O=C(COc1ccc(Cl)nc1)NC1CCN(CCCOc2ccc(Cl)cc2)CC1 [Example 43, N-(1-(3-(4-chlorophenoxy)propyl)piperidin-4-yl)-2-((6-chloropyridin-3-yl)oxy)acetamide]	58.4
O=C(NCCOc1ccc(Cl)cc1)C1CCN(CCCOc2ccc(Cl)cc2)CC1 [Example 40, N-(2-(4-chlorophenoxy)ethyl)-1-(3-(4-chlorophenoxy)propyl)piperidine-4-carboxamide]	> 1000
O=C(COc1ccc(Cl)cc1)NC1CCN(C(=O)COc2ccc(Cl)cc2)CC1F (centres unmarked) [Example 30, 2-(4-chlorophenoxy)-N-(1-(2-(4-chlorophenoxy)acetyl)-3-fluoropiperidin-4-yl)acetamide]	110
O=C(COc1ccc(Cl)cc1)NC1CCCN(C(=O)COc2ccc(Cl)cc2)C1 (centres unmarked) [Example 27, 2-(4-chlorophenoxy)-N-(1-(2-(4-chlorophenoxy)acetyl)piperidin-3-yl)acetamide]	> 1000
O=C(COc1ccc(Cl)cc1)NC1CCN(CCCOc2ccc(Cl)nc2)CC1 [Example 17, 2-(4-chlorophenoxy)-N-(1-(3-((6-chloropyridin-3-yl)oxy)propyl)piperidin-4-yl)acetamide]	76.8
CN(C(=O)COc1ccc(Cl)cc1)C1CCN(CCCOc2ccc(Cl)cc2)CC1 [Example 57, 2-(4-chlorophenoxy)-N-(1-(3-(4-chlorophenoxy)propyl)piperidin-4-yl)-N-methylacetamide]	61.2
O=C(COc1ccc(Cl)cc1)NCC1CCN(CCCOc2ccc(Cl)cc2)CC1 [Example 49, 2-(4-chlorophenoxy)-N-((1-(3-(4-chlorophenoxy)propyl)piperidin-4-yl)methyl)acetamide]	> 1000
O=C(NCCc1ccc(Cl)cc1)C1CCN(C(=O)COc2ccc(Cl)cc2)CC1 [Example 24, N-(4-chlorophenethyl)-1-(2-(4-chlorophenoxy)acetyl)piperidine-4-carboxamide]	201
O=C(COc1ccc(Cl)nc1)NCC1CCCN(C(=O)COc2ccc(Cl)cc2)C1 (centres unmarked) [Example 29, N-((1-(2-(4-chlorophenoxy)acetyl)piperidin-3-yl)methyl)-2-((6-chloropyridin-3-yl)oxy)acetamide]	> 1000
O=C(COc1ccc(Cl)cc1)NC1CCN(CCOc2ccc(Cl)cc2)CC1F (centres unmarked) [Example 50, 2-(4-chlorophenoxy)-N-(1-(2-(4-chlorophenoxy)ethyl)-3-fluoropiperidin-4-yl)acetamide]	93.9
O=C(COc1ccc(Cl)cc1)NCCC1CCCN(C(=O)COc2ccc(Cl)cc2)C1 (centres unmarked) [Example 28, 2-(4-chlorophenoxy)-N-(2-(1-(2-(4-chlorophenoxy)acetyl)piperidin-3-yl)ethyl)acetamide]	< 1000
